In one assay the test system is phosphorylated ZAP70. Briefly: Phosphorylated ZAP70 in circulating CD8+ T cells after oral dosing of cynomolgus monkeys (flow cytometry, ex vivo anti-CD3/CD28 stimulation). The method, then: (§1) To assess these proximal biomarkers of Cbl-b inhibition on CD8^+ T cells, pharmacodynamic analysis was performed in conjunction with a pharmacokinetic study conducted at Charles River Laboratories. Circulating blood was obtained from cynomolgus monkeys treated with 0.3, 1, 3 or 10 mg/kg of Compound 23 after a single dose and after 3 doses. The response to Cbl-b inhibition on proximal biomarkers (pHS1, pPLCγ2, and pZAP70) was measured in CD8^+ T cells using flow cytometry. This technique is highly quantitative and can measure multiple phosphorylation markers in different cell populations within the same sample.
(§2) Compound 23 was formulated in vehicle (0.2% Tween 80 in DI water+1 eq HCL) and aliquoted into individual (not serially diluted) dosing solutions of 0.3, 1, 3 and 10 mg/mL by stirring for 5-10 min, vortexing, and sonicating again as necessary to produce an even suspension that was stirred constantly at 4° C. to achieve and maintain a homogenous suspension. To prepare vehicle, 0.2% Tween 80 in deionized (DI) water, water was measured into a beaker with continuous stirring. Tween 80 was added sequentially, and stirring continued until the solution dissolved; the solution was stored at 2-8° C.
(§3) For pharmacodynamic analysis, whole blood was obtained from cynomolgus monkeys and used for flow cytometry assays to evaluate phosphorylated biomarkers, pHS1, pPLCγ2, and pZAP70, in circulating CD8^+ T cells.
(§4) On the day of dosing, blood samples were collected via femoral venipuncture in accordance with test facility standard operating procedures. 1 mL/tube of whole blood was collected pre-dose (time 0) and at 0.5, 1, 2, 4, 6, and 24 hours post-dose and added into 2 types of TruCulture tubes (Myriad) for pharmacodynamic analysis. One tube contained media alone and is denoted as “Null”, and the second tube contained 2 μg/mL anti-CD3 and anti-CD28, which were prepared at Nurix prior to the study using cynomolgus specific anti-CD3 (BD Biosciences; SP34-2) and anti-CD28 (Bio X cell; CD28.2) and denoted as “CD3/CD28”. Tubes were shipped by overnight courier on cold pack the day of collection and analyzed for phosphorylated biomarkers of Cbl-b inhibition by flow cytometry.
(§5) Following PD collection, upon receipt of TruCulture tubes, each tube was inverted 5-6 times to ensure a mixed suspension of blood. 30 μg of goat anti-mouse IgG (H+L) antibody (Invitrogen) was added to cross-link the stimulation antibodies and induce synchronized cellular stimulation. Cells were stimulated for 60 minutes alongside non-stimulated controls for each time point.
All buffers (Phosflow Lyse/Fix Buffer 5×, Phosflow Perm Buffer I; BD Biosciences) were prepared according to the manufacturer's instructions. After 60 minutes of goat anti-mouse IgG (H+L) antibody stimulation, one volume of blood was mixed with 20 volumes of pre-warmed BD Phosflow Lyse/Fix Buffer (1×) by repeated pipetting (8-10 times), then incubated in a 37° C. water bath for 10 min. Cells were washed and centrifuged at 500×g for 5 min (2×) with PBS. Following centrifugation, cell pellets were resuspended in cold BD Phosflow Perm Buffer I (BD) and incubated at 4° C. for 20 min. […]
(A flow cytometer gives signals particle by particle.)

The subject of another assay is phosphorylated HS1. In words: Phosphorylated HS1 in circulating CD8+ T cells of patients, Phase 1 trial (flow cytometry). Format: in vivo, human. As to the method: Pharmacodynamic analysis of the proximal biomarker, phosphorylated HS1 is assessed in circulating CD8^+ T cells from patients that are being administered doses ranging from 5 to 50 mg of Compound 23 once daily and is being used to assess target engagement of Compound 23 as part of the dose/exposure-response profile. Whole blood is collected longitudinally and added into two types of TruCulture (Myriad) tubes. One tube contains media, and the second tube contains anti-CD3 and anti-CD28, which are subsequently crosslinked to induce cellular stimulation for pharmacodynamic analysis. Phosphorylated HS1 is assessed by flow cytometry pre and post dose on Cycle 1 Day 1 (C1D1) and Cycle 2 Day 1 (C2D1) to characterize single/multiple dose PD profiles.
% Maximal phosphorylated signal and % AUC are two commonly used parameters to assess the pharmacodynamic effects of drugs.
% Maximal phosphorylated signal refers to the maximum amount of a specific protein that becomes phosphorylated (i.e., modified by the addition of a phosphate group) in response to a drug or other stimulus. This parameter is often used to measure the activation of signaling pathways that are important for various cellular processes, including cell growth and differentiation, immune response, and metabolism.
% AUC, on the other hand, refers to the area under the curve (AUC) over time, expressed as a percentage of the maximum possible AUC. In summary, both % maximal phosphorylated signal and % AUC are useful parameters to assess the pharmacodynamic effects of drugs. % maximal phosphorylated signal is a measure of the activation of signaling pathways, while % AUC reflects the duration of the effect on PD signals. Both parameters can be used to evaluate the potency and duration of a drug's pharmacodynamic effects.

The test system of the next assay is phosphorylated PLCγ2. In words: Phosphorylated PLCγ2 in circulating CD8+ T cells after oral dosing of cynomolgus monkeys (flow cytometry, ex vivo anti-CD3/CD28 stimulation). As to the method:
as §1, §2, §3, §4, §5
All buffers (Phosflow Lyse/Fix Buffer 5×, Phosflow Perm Buffer I; BD Biosciences) were prepared according to the manufacturer's instructions. […]

Setting [1] is: multiple doses of 10 mg/kg, 3 days of daily oral dosing.
[2] abbreviates: multiple doses of 10 mg/kg, 4 hours post dose.
Where [3] appears, read: single dose oral 10 mg/kg, circulating CD8+ T cells, anti-CD3/CD28 stimulated.
Where [4] appears, read: 5 mg once daily, n=1, cycle 1, day 1.
The mark [5] stands for this setting: 15 mg once daily, n=12, cycle 1, day 1.
Setting [6] is: 25 mg once daily, n=7, cycle 1, day 1.
[7] abbreviates: 50 mg once daily, n=2, cycle 1, day 1.

As to `C[C@H]1CCCN(Cc2cc3c(c(C(F)(F)F)c2)CN(c2cccc([C@]4(c5nncn5C)C[C@@H](C)C4)c2)C3=O)C1` [Compound 23], the “phosphorylated ZAP70 in comparison to baseline” value in the assay with phosphorylated ZAP70 (setting [1]) and in the assay on phosphorylated ZAP70 (setting [3]) was “significant increases” each time. In the assay with phosphorylated ZAP70 (setting [2]), the “time of peak increase of phosphorylated ZAP70” value stood at 76 h. In the assay with phosphorylated ZAP70 (single dose oral 10 mg/kg), the “time of maximal signal, phosphorylated ZAP70” value stood at 2 hours post dose. Moreover, the “phosphorylated ZAP70 sustained after 24 hours” value in the assay with phosphorylated ZAP70 (single dose oral 10 mg/kg, after 24 hours) is given as “significant increase”. For the same compound, the “% of phosphorylated HS1 expressing CD8+ T cells (maximal)” value in the assay with phosphorylated HS1 (setting [4]) came to 35%; with phosphorylated HS1 (setting [5]) it was 46%; in the assay on phosphorylated HS1 (setting [6]) it was 53%; in the assay with phosphorylated HS1 (setting [7]) it was 52%. Also, the “phosphorylated HS1 AUC” value in the assay with phosphorylated HS1 (setting [4]) is 578; in the assay on phosphorylated HS1 (setting [5]), 787; in the assay with phosphorylated HS1 (setting [6]), 876; with phosphorylated HS1 (setting [7]), 1055. For the same compound, in the assay with phosphorylated HS1 (Pearson correlation with PK parameters (AUC and CMAX), statistically significant slope p=0.02), the “trend of AUC % pHS1 with PK” value is listed as “positive trend”. The “phosphorylated PLCγ2 in comparison to baseline” value in the assay with phosphorylated PLCγ2 (setting [1]) and in the assay with phosphorylated PLCγ2 (setting [3]) was “significant increases” in each case. In the assay with phosphorylated PLCγ2 (setting [2]), the “time of peak increase of phosphorylated PLCγ2” value came to 76 h. In addition, the “time of maximal signal, phosphorylated PLCγ2” value in the assay with phosphorylated PLCγ2 (single dose oral 10 mg/kg) was determined as 2 hours post dose.
